Data reported in patent US20250387428A1, “PETROLATUM-BASED PHMB COMPOSITIONS AND METHODS FOR THE TREATMENT OF INFLAMMATORY SKIN DISEASE” (priority 2024, published 2025).
Values joined by “and” are separate entries in the source; they are usually repeats but may differ in a detail not shown here. Identical values can stand only once. “Also recorded” adds a separate entry of the source.

Tested on: skin of albino New Zealand White rabbits
Assay: Rabbit skin irritation, Primary Irritation Index
Conditions: sulfate
Description: Within 24 hours to 4 hours before test application, the backs of female albino New Zealand White rabbits were clipped free of hair, exposing 2 test and 2 control areas on each side of the spine with a size of approximately 15 cm×15 cm. The two test sites are located on the left cranial section and the right caudal section of the dorsal region. The two control sites are located on the left caudal and right cranial section of the dorsal region. FIG. 4 depicts the arrangement of test and control sites. The exposed skin is wiped with alcohol and dried. Rabbits of acceptable skin quality were selected and used for testing.
A 25×25 mm gauze patch saturated with 0.5 mL of 0.9% NaCl is used for the control and applied to the clipped control sites. The patches are secured using hypoallergenic, waterproof, surgical tape over the test and control sites. The animal's trunk is securely wrapped so as to maintain the position of the patches. Patches are left applied for a minimum of four hours.
After patch removal, the test and control sites were then scored for erythema and edema at 1, 24, 48 and 72 hours after patch removal. Only the 24, 48, and 72 hour observations were scored and used for calculations. If no response was expected, testing was conducted using three animals per test article. If irritation was anticipated, one animal was tested initially. If the first animal received a score of 2 or less for either erythema or edema, 2 additional rabbits were used to conclude the test.
This total was divided by the total number of observations. The same was done for the control sites. […] These scores for each animal were added and divided by the total number of animals to give the Primary Irritation Index. […] For any response, the Maximum Irritation Response, the time of onset of the response and the time of maximum response was recorded.
To positively validate the test, 10% sodium dodecyl sulfate (SDS), which is a known dermal irritant, in petroleum jelly was applied to a 2.5 cm×2.5 cm gauze patch. As a negative control, 0.5 mL of 0.9% NaCl was applied to a 2.5 cm×2.5 cm gauze patch. A Primary Irritation Index in the moderate to severe range is considered a positive result. The test system and methods utilized were the same as described above.

[1] = per rabbit, test sites, 24, 48 and 72 hour observations after patch removal, patch at least four hours

CCCCCCCCCCCCOS(=O)(=O)[O-].[Na+] [10% SDS, sodium dodecyl sulfate]
Total Score Average (per rabbit (irritation index for each animal)): Total Score Average = 6.6; also recorded: Total Score Average = 7.3; also recorded: Total Score Average = 5.3 | ED (edema) score total [1]: 19 and 21 and 14 | ER (erythema) score total [1]: 21 and 23 and 18 | ER + ED = Total (per rabbit, test sites, 24, 48 and 72 hour observations): 40 and 44 and 32
